# “And” between values parts separate entries of the source, which are not always exact repeats. Identical values can stand only once.
# Key:
# [1] = tested on: HT-29 human colon carcinoma; assay: Orthotopic HT-29 human colon tumor model; assay type: in vivo, SCID female mice
# Method: Immunodeficient, 6–8 weeks old SCID female mice (21–27 g) were used in this experiment. HT-29 colon carcinoma cells were subcutaneously injected into one side of the intrascapular region, whereby 2 × 10^6 cells were used per animal, suspended in 200 µL of M199 medium, in order to establish the xenografts with primary tumor. After two weeks, the mice with palpable tumors were sacrificed by cervical dislocation, disinfected with iodine and the subcutaneous tumor was aseptically dissected out.
# The abdomen of mice was disinfected with iodine and alcohol, a small midline incision (0.5 cm) was then made and the colorectal part of the intestine was exteriorized. Serosa of the site where the tumor pieces should be implanted were removed. Tumor tissue fragments of HT-29 human colon tumor were implanted on the top of the animal intestine, whereby an 8/0 surgical (polypropylene) suture was used to suture it on the wall of the intestine. The intestine was returned to the abdominal cavity and the abdominal wall was closed with 4/0 surgical (polyglycolic acid) sutures. The wound was disinfected with iodine and alcohol again and the animals were kept in a sterile environment.
# The treatments started seven days after tumor transplantation by i.p. administration of the free Dau and conjugates which were dissolved in sterile water for injection. Six mice per group were used. One group of mice was treated with free Dau at a dose of 1 mg/kg body weight on day 7, 13 and 20 after tumor transplantation. […] The control group was treated with sterile water. The experiment was terminated on day 30 after tumor transplantation (day 24 of treatment). […] The mice from all groups were sacrificed by cervical dislocation. Their tumors and livers were harvested and weighed.
# [2] = tested on: MDA-MB-231 human breast carcinoma; assay: Orthotopic MDA-MB-231 human breast tumor model; assay type: in vivo, SCID female mice
# Method: Adult SCID female mice (22–28 g) were used in this experiment and kept under the same conditions, as described above. […] The treatments started 21 days after cells inoculation, when average tumor volume was 40 mm^3. Free Dau and conjugates were administrated by i.p. injection. Four groups with seven animals per group were established and treated with certain doses and schedules. The mice in the control group were treated with sterile water, while the mice in the free Dau group were treated with a dose of 1 mg/kg, once per week, on day 21, 28, 35 and 42 after cell inoculation. […] The last treatment was performed on day 42 after cell inoculation, whereby a dose of 7.5 mg/kg Dau content was applied. The animal weights and tumor volumes were measured when the treatment was initiated and at periodic intervals according to the treatment schedule. The tumor volume was calculated in the same manner as described for mice breast carcinoma. […] The mice from all groups were sacrificed by cervical dislocation and primary tumors and livers were harvested and weighed, while number of animals with metastases were counted. The anti-tumor effects of the conjugates were evaluated measuring the tumor volume and the tumor weights, while the toxicity effects of conjugates were evaluated measuring liver weights and calculating the liver weight/body weight ratio.
# [3] = tested on: 4T1 mice breast carcinoma; assay: Orthotopic 4T1 mice breast tumor model; assay type: in vivo, BALB/c female mice
# Method: Adult BALB/c female mice (20–25 g) were used in this experiment and kept under the same conditions, as described above. 4T1 mice breast carcinoma cells, maintained as described above, were orthotopically injected into the lower quarter of the right mammary fat pad line of mice, whereby 1 × 10^6 cells were used per animal, suspended in 50 µL M199 medium (Sigma Aldrich). The treatment started seven days after cells inoculation, when the average tumor volume was 38 mm^3, by i.p. administration of the conjugates or free Dau. Four groups with seven animals per group were established and treated with certain doses and schedules. The mice in the control group were treated with sterile water, while mice in free Dau group were treated with a dose of 1 mg/kg, once per week, on days 7, 14 and 21 after cells inoculation. […] Animal weight and tumor volumes were measured initially when the treatment started and at periodic intervals according to the treatment schedule. A digital caliper was used to measure the longest (a) and the shortest diameter (b) of a given tumor. The tumor volume was calculated while using the formula V = ab^2 × π/6, whereby a and b represent the measured parameters (length and width). The termination of the experiment was initiated 28 days after cell inoculation, respectively 22 days after treatment start, since the average volume of the tumors in the control group reached 1800 mm^3. The mice from all groups were sacrificed by cervical dislocation. The anti-tumor effects and the liver toxicity of the conjugates and free Dau were evaluated based on the tumor volume and the liver weight/body weight ratio in each group. Moreover, the anti-proliferative and anti-metastatic activity of the conjugates and free Dau was evaluated in primary tumor and in metastases on the peripheral organs.
# The routinely formalin-fixed tumors were dehydrated in a graded series of ethanol, infiltrated with xylene and embedded into paraffin at a temperature not exceeding 60 °C. Two micron thick sections were mounted on Superfrost slides (Thermo Shandon, Runcorn, UK) and then manually deparaffinized. To block endogenous peroxidase activity, slides were treated for 20 min. at r.t. with 3% H2O2 in methanol. The slides were immersed in 6% citrate buffer (pH = 6) and exposed to 98 °C water bath for 40 min. […] After washing, secondary antibody Biotinylated Link (Dako) was applied for 10 min. at r.t. For visualization, supersensitive one step polymer HRP (Biogenex, Fremont, CA, USA) was used with 3-amino-9-ethylcarbazole (AEC) as chromogen. Staining without the primary antibody served as the negative control.
# Liver, spleen, lung and kidneys were harvested and fixed in formalin. All of the visible macro-metastatic lesions of the peripheral organs of seven animals from the control and treated groups on a stereo microscope Kruss MSZ5600 (Kruss Optronic, Hamburg, Germany) under 7–45-fold magnification were counted. The percentages of macro-metastatic lesions in the treated groups compared to the control group was calculated.
# Proliferation marker stained samples were evaluated on light microscope Olympus BH-2 microscope (Olympus, Tokyo, Japan). […] The proliferation index was calculated as percentage of KI-67 positive cells from all cells in the field of view.
# HT-29 = assay: In vitro anti-proliferative activity (MTT assay); assay type: cell-based; conditions: Homo sapiens, HT-29 (colon), 24 h treatment + 48 h culture, average ± SD
# Method: (§1) In experimental procedures following cell lines were used, MDA-MB-231 and MCF-7 (human breast cancer), 4T1 (mice breast cancer), DU145 and PC-3 (human prostate cancer), A2780, OVCAR-3 and OVCAR-8 (human ovarian cancer), HepG2 (human liver cancer), A2058, WM983b, HT168-M1/9 and M24 (human melanoma), B16 (mice melanoma), H1975, H1650 and A549 (human lung cancer), HT-29 (human colorectal adenocarcinoma), C26 (mice colon cancer) and PANC-1 (pancreatic cancer) were cultured in RPMI 1640 Medium with glutamine (Roswell Park Memorial Institute Medium, Lonza, Basel, Switzerland). Moreover, U87MG (human malignant glioma) and MRC-5 (normal human fibroblast) were cultured in Dulbecco’s Modified Eagle’s Medium (DMEM, Lonza) and PE/CA-PJ15 and PE/CA-PJ41 (head and neck cancer) were cultured in Iscove’s Modified Dulbecco’s Medium (IMEM, Sigma Aldrich, St. Louis, MO, USA). Apart from the cell culture medium for OVCAR-3 cells, all media were supplemented with 10% heat-inactivated FBS (Fetal Bovine Serum, Euroclone, Milan, Italy) and 1% Penicillin/Streptomycin (Sigma Aldrich), while OVCAR-3 cells were cultured in 20% FBS containing RPMI medium. The cell lines were mainly obtained from ATCC, except for PE/CA-PJ15, PE/CA-PJ41 (ECACC), A2058 (kindly provided by L.A. Liotta, NCI, Bethesda, MD, USA), HT-168-M1/9 (derived from A2058), M24 (kind gift from B.M. Mueller, Scripps Research Institute, La Jolla, CA, USA) and WM983b (kindly provided by Meenhard Herlyn, Wistar Institute, Philadelphia, PA, USA). Cells were cultured in sterile T25 or T75 flasks with ventilation cap (Sarstedt, Nümbrecht, Germany) at 37 °C in a humidified atmosphere with 5% CO2.
# (§2) For the evaluation of the in vitro anti-proliferative activity of the GnRH-III conjugates and free Dau, the cell viability was determined by MTT assay (3-(4,5-dimethylthiazol-2-yl)-2,5-diphenyl-tetrazolium bromide) that was obtained from Sigma Aldrich. After standard harvesting of the cells by trypsin-EDTA (Lonza), 4 × 10^3 till 10 × 10^3 cells per well depending on cell line, were seeded in serum containing growth medium to 96-well plates (Sarstedt) and incubated. After 24 h, the growth medium was removed and cells were treated with various concentrations of conjugates 1 and 2 (32 nM–100 µM) or free Dau (0.1 nM–10 µM), dissolved in serum free medium and incubated for 24 h under standard conditions. The control wells were treated with serum free medium. After 24 h of treatment, the cells were washed twice with serum free medium and then cultured in serum containing medium for an additional 48 h. Afterward, the MTT assay was performed, in order to determine cell viability, by adding 20 µL of MTT solution (5 mg/mL in PBS) to each well and after 2 h of incubation at 37 °C, the supernatant was removed. The formazan crystals were dissolved in 100 µL of a 1:1 solution of DMSO (Sigma Aldrich):EtOH (Molar Chemicals Kft., Halásztelek, Hungary) and the absorbance was measured after 15 min. at λ = 570 nm by using a microplate reader (Bio-Rad, model 550, Hercules, CA, USA). The IC50 values of the conjugates and free drug were calculated while using GraphPad Prism 6 (GraphPad Software, San Diego, CA, USA). The experiments were done in triplicate and each experiment was repeated twice.
# HT168-M1/9 = assay: In vitro anti-proliferative activity (MTT assay); assay type: cell-based; conditions: Homo sapiens, HT168-M1/9 (melanoma), 24 h treatment + 48 h culture, average ± SD
# Method: as §1, §2
# PE/CA-PJ15 = assay: In vitro anti-proliferative activity (MTT assay); assay type: cell-based; conditions: PE/CA-PJ15 (head and neck), 24 h treatment + 48 h culture, average ± SD
# Method: as §1, §2
# HepG2 = assay: In vitro anti-proliferative activity (MTT assay); assay type: cell-based; conditions: Homo sapiens, HepG2 (liver), 24 h treatment + 48 h culture, average ± SD
# Method: as §1, §2
# A2780 = assay: In vitro anti-proliferative activity (MTT assay); assay type: cell-based; conditions: Homo sapiens, A2780 (ovarian), 24 h treatment + 48 h culture, average ± SD
# Method: as §1, §2
# OVCAR-3 = assay: In vitro anti-proliferative activity (MTT assay); assay type: cell-based; conditions: Homo sapiens, OVCAR-3 (ovarian), 24 h treatment + 48 h culture, average ± SD
# Method: as §1, §2
# B16 = assay: In vitro anti-proliferative activity (MTT assay); assay type: cell-based; conditions: Mus musculus, B16 (mice melanoma), 24 h treatment + 48 h culture, average ± SD
# Method: as §1, §2
# A2058 = assay: In vitro anti-proliferative activity (MTT assay); assay type: cell-based; conditions: Homo sapiens, A2058 (melanoma), 24 h treatment + 48 h culture, average ± SD
# Method: as §1, §2
# PE/CA-PJ41 = assay: In vitro anti-proliferative activity (MTT assay); assay type: cell-based; conditions: PE/CA-PJ41 (head and neck), 24 h treatment + 48 h culture, average ± SD
# Method: as §1, §2
# C26 = assay: In vitro anti-proliferative activity (MTT assay); assay type: cell-based; conditions: Mus musculus, C26 (mice colon), 24 h treatment + 48 h culture, average ± SD
# Method: as §1, §2
# PC-3 = assay: In vitro anti-proliferative activity (MTT assay); assay type: cell-based; conditions: Homo sapiens, PC-3 (prostate), 24 h treatment + 48 h culture, average ± SD
# Method: as §1, §2
# H1975 = assay: In vitro anti-proliferative activity (MTT assay); assay type: cell-based; conditions: Homo sapiens, NCI-H1975, H1975 (lung), 24 h treatment + 48 h culture, average ± SD
# Method: as §1, §2
# MCF-7 = assay: In vitro anti-proliferative activity (MTT assay); assay type: cell-based; conditions: Homo sapiens, MCF7, MCF-7 (breast), 24 h treatment + 48 h culture, average ± SD
# Method: as §1, §2
# MRC-5 = assay: In vitro anti-proliferative activity (MTT assay); assay type: cell-based; conditions: Homo sapiens, MRC5, MRC-5 (normal fibroblast), 24 h treatment + 48 h culture, average ± SD
# Method: as §1, §2
# WM983b = assay: In vitro anti-proliferative activity (MTT assay); assay type: cell-based; conditions: Homo sapiens, WM983b (melanoma), 24 h treatment + 48 h culture, average ± SD
# Method: as §1, §2
# OVCAR-8 = assay: In vitro anti-proliferative activity (MTT assay); assay type: cell-based; conditions: Homo sapiens, OVCAR-8 (ovarian), 24 h treatment + 48 h culture, average ± SD
# Method: as §1, §2
# U87MG = assay: In vitro anti-proliferative activity (MTT assay); assay type: cell-based; conditions: Homo sapiens, U-87 MG, U87MG (glioblastoma), 24 h treatment + 48 h culture, average ± SD
# Method: as §1, §2
# 4T1 = assay: In vitro anti-proliferative activity (MTT assay); assay type: cell-based; conditions: Mus musculus, 4T1 (mice breast), 24 h treatment + 48 h culture, average ± SD
# Method: as §1, §2
# M24 = assay: In vitro anti-proliferative activity (MTT assay); assay type: cell-based; conditions: Homo sapiens, M24 (melanoma), 24 h treatment + 48 h culture, average ± SD
# Method: as §1, §2
# MDA-MB-231 = assay: In vitro anti-proliferative activity (MTT assay); assay type: cell-based; conditions: Homo sapiens, MDA-MB-231 (breast), 24 h treatment + 48 h culture, average ± SD
# Method: as §1, §2
# PANC-1 = assay: In vitro anti-proliferative activity (MTT assay); assay type: cell-based; conditions: Homo sapiens, PANC-1 (pancreas), 24 h treatment + 48 h culture, average ± SD
# Method: as §1, §2
# H1650 = assay: In vitro anti-proliferative activity (MTT assay); assay type: cell-based; conditions: Homo sapiens, NCI-H1650, H1650 (lung), 24 h treatment + 48 h culture, average ± SD
# Method: as §1, §2
# DU145 = assay: In vitro anti-proliferative activity (MTT assay); assay type: cell-based; conditions: Homo sapiens, DU-145, DU145 (prostate), 24 h treatment + 48 h culture, average ± SD
# Method: as §1, §2
# A549 = assay: In vitro anti-proliferative activity (MTT assay); assay type: cell-based; conditions: Homo sapiens, A549 (lung), 24 h treatment + 48 h culture, average ± SD
# Method: as §1, §2
# [4] = Chronic toxicity study on healthy mice; assay type: in vivo; conditions: healthy BALB/c female mice; i.p.; conjugates 15 mg/kg Dau content x5 (days 1,3,6,8,10); free Dau 1 mg/kg x2 (days 1,8); 14 days; 3 mice per group
# Method: Adult female inbred BALB/c mice from a specified pathogen free (SPF) breeding of the National Institute of Oncology (Budapest, Hungary), were used in acute and chronic toxicity studies and in orthotopic 4T1 mice breast tumor model experiment. The mice were kept in a sterile environment in Makrolon® cages at 22–24 °C (40–50% humidity), with a lighting regulation of 12/12 h light/dark. The animals had free access to tap water and were fed with a sterilized standard diet (VRF1, autoclavable, Akronom Kft., Budapest, Hungary) ad libitum.
# In order to determine the toxicity of the conjugates, in vivo acute and chronic toxicity studies were performed on healthy animals. In acute toxicity study, adult BALB/c female mice (20–23 g) were treated by a single intraperitoneal (i.p.) injection of conjugate 2, whereby different doses (3.125, 6.25, 12.5, 25 and 50 mg/kg Dau content) were administrated to each groups (three mice per group). In chronic toxicity studies, adult female BALB/c mice (23–26 g) were treated either with GnRH-III conjugates by i.p. administration with a dose of 15 mg/kg Dau content on day 1, 3, 6, 8 and 10, or with free Dau (1 mg/kg) on day 1 and 8. In case of the control group, sterile water was administered. Each group consisted of three mice. The toxicity was evaluated on the basis of life span, behavior and appearance of the mice, as well as the body weight. […]
# [5] = SCID mice, i.p., 1 and 2 10 mg/kg Dau content x7, end day 30, free Dau 1 mg/kg x3, end day 23, 6 per group
# [6] = SCID mice, i.p., 1 and 2 15 mg/kg Dau content x6 + 7.5 mg/kg x1, free Dau 1 mg/kg x4, day 45, 7 per group
# [7] = vs control, 1 and 2 10 mg/kg Dau content x6, free Dau 1 mg/kg x3, day 28, 7 animals
smiles,measurement,setting,value
"COc1cccc2c1C(=O)c1c(O)c3c(c(O)c1C2=O)C[C@@](O)(C(C)=O)C[C@@H]3O[C@H]1C[C@H](N)[C@H](O)[C@H](C)O1 [Dau, daunorubicin]",Decrease of liver/body weight ratio compared to control,"[1]; 1 and 2 10 mg/kg Dau content x7, day 30, free Dau 1 mg/kg x3, day 23",29.4%
same,Animal body weight at the end of experiment compared to the start,[1]; [5],significantly decreased
same,Reduction of tumor weight compared to control,[1]; [5],84.3% and 84%
same,Decrease of liver/body weight ratio compared to control,"[2]; 1 and 2 15 mg/kg Dau content x6 + 7.5 mg/kg x1, free Dau 1 mg/kg x4, day 45",16.8%
same,Decrease of body weight at the end of experiment compared to the beginning,[2]; [6],20%
same,Inhibition of tumor volume compared to control,[2]; [6],46.3% and 46%
same,Inhibition of tumor weight,[2]; [6],40.1%
same,Number of mice with metastases close to the primary tumor,"[2]; end of experiment day 45, control 5/5",four out of seven and 4/7 and 4/7 ^2
same,Decrease of liver/body weight ratio compared to control,"[3]; 1 and 2 10 mg/kg Dau content x6, free Dau 1 mg/kg x3, day 28",9.8%
same,Animal body weight at the end of experiment compared to the start,"[3]; BALB/c mice, i.p., 1 and 2 10 mg/kg Dau content x6, free Dau 1 mg/kg x3, day 28, 7 per group",slightly decreased
same,Inhibition of proliferation index of lung metastases,"[3]; KI-67, vs control, 1 and 2 10 mg/kg Dau content x6, free Dau 1 mg/kg x3",27.8% and 28%
same,Decrease of proliferation index in primary tumor compared to control,"[3]; KI-67 positive cells, 400x, 1 and 2 10 mg/kg Dau content x6, free Dau 1 mg/kg x3, day 28",19%
same,Inhibition of number of micro-metastases in the lung compared to control,"[3]; KI-67 stained, per field of view 100x, 1 and 2 10 mg/kg Dau content x6, free Dau 1 mg/kg x3",33.7% and 34%
same,Decrease of spleen weight compared to control,"[3]; day 28, 7 per group, Figure S2",27.2%
same,Decrease of number of macro-metastases in lung,[3]; [7],55.4%
same,Decrease of number of macro-metastases in spleen,[3]; [7],64.3%
same,IC50,HT-29,202.9 ± 1 nM
same,IC50,HT168-M1/9,27.5 ± 9.1 nM
same,IC50,PE/CA-PJ15,50.5 ± 38.7 nM
same,IC50,HepG2,22.9 ± 1.4 nM
same,IC50,A2780,10.4 ± 1.6 nM
same,IC50,OVCAR-3,404 ± 9.4 nM
same,IC50,B16,26 ± 8 nM
same,IC50,A2058,35.1 ± 14.9 nM
same,IC50,PE/CA-PJ41,45.6 ± 33.5 nM
same,IC50,C26,118 ± 8.6 nM
same,IC50,PC-3,32.7 ± 4.7 nM
same,IC50,H1975,20.9 ± 2.7 nM
same,IC50,MCF-7,63.9 ± 21 nM
same,IC50,MRC-5,288 ± 35.1 nM
same,IC50,WM983b,49.8 ± 22.9 nM
same,IC50,OVCAR-8,186 ± 99.8 nM
same,IC50,U87MG,126 ± 53.7 nM
same,IC50,4T1,56 ± 14.7 nM
same,IC50,M24,119 ± 25 nM
same,IC50,MDA-MB-231,54.6 ± 7.4 nM
same,IC50,PANC-1,526 ± 24.7 nM
same,IC50,H1650,50.3 ± 13.4 nM
same,IC50,DU145,16.3 ± 4.6 nM
same,IC50,A549,69.3 ± 23.5 nM
same,"Chronic toxicity: body weight, general looking and behavior",[4],could not observe a significant change in body weight

# — paper PMC6801585, “Improved In Vivo Anti-Tumor and Anti-Metastatic Effect of GnRH-III-Daunorubicin Analogs on Colorectal and Breast Carcinoma Bearing Mice” (International Journal of Molecular Sciences, 2019)
